This note sets out measurements from US20030044399A1, “Method of treatment” (SmithKline Beecham Corporation, priority 1998, published 2003).

In the first assay the target is Cruzain (Trypanosoma cruzi, UniProt P25779). Nature of the assay: Cysteine protease inhibition, progress curve method, cruzain. The class given is biochemical. The following applies: 4 uM Ac-Lys-Glu-Lys-Leu-Arg-AMC, 100 mM Na acetate pH 5.5, 5 mM cysteine; read-out: Cruzain Ki. As to the method: (§1) Standard assay conditions for the determination of kinetic constants used 10 uM fluorogenic peptide substrate, Cbz-Phe-Arg-AMC for the cysteine proteases from Leishmania spp and Schistosoma Mansoni, Cbz-Leu-Arg-AMC for the cysteine proteases from Plasmodium falciparum and Trypanosoma brucei rhodesiensi, and Ac-Lys-Glu-Lys-Leu-Arg-AMC (4 uM final substrate concentration) for the cysteine protease from Trypoanosoma cruzi, and were determined in 100 mM Na acetate at pH 5.5 containing 5 mM cysteine. Stock substrate solutions were prepared at concentrations of […] in DMSO with 10 uM (4 uM for Ac-Lys-Glu-Lys-Leu-Arg-AMC) final substrate concentration in the assays. The final DMSO concentration was 2% and the final volume was 100 uL. All assays were conducted at ambient temperature. Product progress curves were generated over 20 to 30 minutes following formation of AMC product.
Sequence of Cruzain (P25779 123-337): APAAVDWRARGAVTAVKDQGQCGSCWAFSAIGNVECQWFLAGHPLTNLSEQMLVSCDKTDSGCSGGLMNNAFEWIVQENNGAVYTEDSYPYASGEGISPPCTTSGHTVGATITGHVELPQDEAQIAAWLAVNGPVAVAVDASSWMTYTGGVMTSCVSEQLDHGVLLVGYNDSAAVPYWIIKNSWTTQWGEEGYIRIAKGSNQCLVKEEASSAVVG
(§2) Potential inhibitors were evaluated using the progress curve method. Assays were carried out in the presence of variable concentrations of test compound. Reactions were initiated by addition of enzyme to buffered solutions of inhibitor and substrate. Data analysis was conducted according to one of two procedures depending on the appearance of the progress curves in the presence of inhibitors. For those compounds whose progress curves were linear, apparent inhibition constants (Ki,app) were calculated according to equation 1 (Brandt et al., Biochemitsry, 1989, 28, 140):
(§3) v=VmA/[Ka(1+I/Ki,app)+A] (1)
(§4) Where v is the velocity of the reaction with maximal velocity Vm, A is the concentration of substrate with Michaelis constant of Ka, and I is the concentration of inhibitor.
(§5) [AMC]=vsst+(v0−vss)[1−exp (−kobst)]/kobs (2)
(§6) Where [AMC] is the concentration of product formed over time t, v0 is the initial reaction velocity and vss is the final steady state rate. Values for kobs were then analyzed as a linear function of inhibitor concentration to generate an apparent second order rate constant (kobs/inhibitor concentration or kobs/[I]) describing the time-dependent inhibition. A complete discussion of this kinetic treatment has been fully described (Morrison et al., Adv. Enzymol. Relat. Areas Mol. Biol., 1988, 61, 201).
(§7) Exemplary inhibition data for the compounds used in the present method collected in accordance with the above-described procedure are listed in Table I.
Take `CC(C)C[C@@H](NC(=O)c1cc2cc(OCCN3CCOCC3)ccc2o1)C(=O)NC1CCCN(S(=O)(=O)c2cccc[n+]2[O-])CC1=O` (stereo partly drawn) [Example 56, 5-(2-Morpholin-4-yl-ethoxy)-benzofuran-2-carboxylic acid {(S)-3-methyl-1-[3-oxo-(1-oxy-pyridine2-sulfonyl)-azepan-4-ylcarbamoyl]-buty}-amide]: the inhibitory constant (Ki) (as a rule, the equilibrium dissociation constant of an inhibitor or competing ligand from its target) stood at 7.8 nM.

As for `CC(C)C[C@@H](NC(=O)c1ccc2c(c1)OCCCO2)C(=O)N[C@@H]1CCCN(S(=O)(=O)c2cccc[n+]2[O-])CC1=O` [Example 60, 3,4-Dihydro-2H-benzo[b][1,4]dioxepine-7-carboxylic acid {(S)-3-methyl-1-[3-oxo-1-(1-oxy-pyridine-2-sulfonyl)-azepan-4-ylcarbamoyl]butyl}amide], the Ki amounted to 9.8 nM.

Consider `CC(C)C[C@@H](NC(=O)c1cc(Br)c(Br)s1)C(=O)N[C@@H]1CCCN(S(=O)(=O)c2cccc[n+]2[O-])CC1=O` [Example 61, 4,5-Dibromo-thiophene-2-carboxylic acid {(S)-3-methyl-1-[3-oxo-1-(1-oxy-pyridine-2-sulfonyl)-azepan-4-ylcarbamoyl]-butyl}amide], for which the Ki worked out at 40 nM.

As to `CC(C)CC(NC(=O)NCc1ccccc1)C(=O)NC1CCCN(S(=O)(=O)c2ccccn2)CC1=O` [Example 80, (S)-2-(3-Benzyl-ureido)-4-methyl-pentanoic acid [3-oxo-carboxylic-(pyridine-2-sulfonyl)azepan4-yl]-amide], the Ki is 15 nM.

With `COc1ccc(S(=O)(=O)N2CCC[C@H](NC(=O)[C@H](CC(C)C)NC(=O)CNC(=O)c3ccco3)C(=O)C2)cc1` [Example 82], the inhibition constant (Ki) was determined as 17 nM.

For the molecule `CC(C)C[C@H](NC(=O)c1cc2ccccc2o1)C(=O)N[C@H]1CCCN(S(=O)(=O)c2ccccc2F)CC1=O` [Example 91], the inhibition constant Ki was determined as 6.2 nM.

For `CC(C)C[C@H](NC(=O)c1cc2ccccc2s1)C(=O)N[C@H]1CCCN(S(=O)(=O)c2ccccc2F)CC1=O` [Example 95, Benzo[b]thiophene-2-carboxylic acid-{(S)-1-[1-(2-fluoro-benzenesulfonyl)-3-oxo-azepan-4-ylcarbamoyl]-3-methyl-butyl}-amide], the Ki was determined as 11 nM.

In the case of `CC(C)C[C@H](NC(=O)c1cnc2ccccc2n1)C(=O)N[C@H]1CCCN(S(=O)(=O)c2ccccc2F)CC1=O` [Example 96, Quinoxaline-2-carboxylic acid-{(S)-1-[1-(2-fluoro-benzenesulonyl)-3-oxo-azepan-4-ylcarbamoyl]-3-methyl-butyl}-amide], the inhibition constant Ki is 8.7 nM.

For the molecule `CCCC[C@H](NC(=O)c1cc2ccccc2o1)C(=O)NC1CCCN(S(=O)(=O)c2ccccn2)CC1=O` (stereo partly drawn) [Example 103, Benzofuran-2-carboxylic acid{(S)-1-[3-oxo-1-(pyridine-2-sulfonyl)-azepan-4-ylcarbamoyl]-pentyl}-amide], the Ki was 60 nM.

With `CC(C)C[C@H](NC(=O)c1cc2ccccc2s1)C(=O)NC1CCCN(S(C)(=O)=O)CC1=O` (stereo partly drawn) [Example 111, Benzo[b]thiophene-2-carboxylic acid-{(S)-1-(1-methanesulfonyl-3-oxo-azepan-4-ylcarbamoyl)-3-methyl-butyl]-amide], the inhibitory constant (Ki) was 18 nM.

Take `CC(C)CC(NC(=O)c1ccc(S(C)(=O)=O)cc1)C(=O)N[C@@H]1CCCN(S(=O)(=O)c2ccccc2C#N)CC1=O` (some centres unmarked) [Example 114]: the Ki stood at 14 nM.

Consider `CC(C)CC(NC(=O)c1cc2ccccc2o1)C(=O)N[C@@H]1CCCN(S(=O)(=O)c2ccccc2C#N)CC1=O` (some centres unmarked) [Example 115], for which the Ki stood at 14 nM.

In the case of `Cc1ccc(C(=O)N[C@H](CC(C)C)C(=O)N[C@@H]2CCCN(S(=O)(=O)c3cccc[n+]3[O-])CC2=O)cn1` [Example 118], the inhibitory constant (Ki) was 18 nM.

`CC(C)C[C@@H](NC(=O)c1ccc(S(C)(=O)=O)cc1)C(=O)N[C@@H]1CCCN(S(=O)(=O)c2ccc(F)cc2)CC1=O` [Example 121, 4-Methansulfonyl-N—{(S)-1-[4-fluoro-benzenesulfonyl)-3-oxo-azepan-4-carbamoyl]-3-methyl-butyl-benzamide]: the inhibition constant (Ki) is 11 nM.

For the molecule `CC(C)C[C@H](NC(=O)c1cc2ccccc2s1)C(=O)N[C@@H]1CCCN(S(=O)(=O)c2cccs2)CC1=O` [Example 146, Benzo[b]thiophene-2-carboxylic acid-{(S)-3-methyl-1-[3-oxo-1-(thiophene-2-sulfonyl)-azepan-4-ylcarbamoyl]-butyl}-amide], the Ki amounted to 6.7 nM.

Turning to `CC(C)C[C@H](NC(=O)c1cnc2ccccc2n1)C(=O)N[C@@H]1CCCN(S(=O)(=O)c2cccs2)CC1=O` [Example 147, Quinoxaline-2-carboxylic acid-{(S)-3-methyl-1-[3-oxo-1-(thiophene-2-sulfonyl)-azepan-4-ylcarbamoyl]-butyl}-amide], the Ki turned out to be 7.5 nM.

With `CC(C)C[C@H](NC(=O)[C@H]1CCC(=O)N1Cc1ccccc1)C(=O)N[C@@H]1CCCN(S(=O)(=O)c2ccccn2)CC1=O` [Example 158], the Ki was 6.8 nM.

For the molecule `CC(C)C[C@@H](NC(=O)c1cc2cc(F)c(F)cc2o1)C(=O)N[C@H]1CCCN(S(=O)(=O)c2cccc[n+]2[O-])CC1=O` [Example 163, 5,6-Difluoro-benzofuran-2-carboxylic acid {(S)-3-methyl-1-[3-oxo-1-(1-oxy-pyridine-2-sulfonyl)-azepan-4-ylcarbamoyl]-butyl}amide], the Ki is 13 nM.

Consider `Cc1c(C(=O)N[C@H](CC(C)C)C(=O)N[C@H]2CCCN(S(=O)(=O)c3cccc[n+]3[O-])CC2=O)oc2ccc(F)cc12` [Example 192, 5-Fluoro-3-methyl-benzofuran-2-carboxylic acid {(S)-3-methyl-1-[3-oxo-1-(1-oxy-pyridine-2-sulfonyl)-azepan-4-ylcarbamoyl]-butyl}-amide], for which the inhibition constant Ki is 14 nM.

For the molecule `COc1cccc2oc(C(=O)N[C@@H](CC(C)C)C(=O)N[C@H]3CCN(S(=O)(=O)c4cccc[n+]4[O-])CCC3=O)c(C)c12` [Example 203, 4-Methoxy-3-methyl-benzofuran-2-carboxylic acid {(S)-3-methyl-1-[3-oxo-1-(1-oxy-pyridine-2-sulfonyl)-azepan-4-ylcarbamoyl]-butyl}-amide], the inhibition constant Ki stood at 20 nM.

Still in this assay, the particulars now being: Cruzain Ki nM, 4 uM Ac-Lys-Glu-Lys-Leu-Arg-AMC, 100 mM Na acetate pH 5.5, 5 mM cysteine.
The molecule `Cc1c(C(=O)NC(CC(C)C)C(=O)NC2CCCN(S(=O)(=O)c3cccc[n+]3[O-])CC2=O)oc2ccc3ccccc3c12` [Example 210, 1-methyl-naphtho[2,1-b]-furan-2-carboxylic acid {(S)-3-methyl-1-[3oxo-1-(1-oxy-pyridine-2-sulfonyl)-azepan-4-ylcarbamoyl]-butyl}-amide] had an inhibitory constant (Ki) of 6.6 nM.

The target of another assay is Rhodazain (Trypanosoma brucei rhodesiense, UniProt Q95PM0). The assay is described as follows: Cysteine protease inhibition, progress curve method, rhodazain. The class given is biochemical, Trypanosoma brucei rhodesiensi. The following applies: Rhodazain Ki (nM), 10 uM Cbz-Leu-Arg-AMC, 100 mM Na acetate pH 5.5, 5 mM cysteine. The procedure: as §1, §2, §3, §4, §5, §6, §7
Sequence of Rhodazain (Q95PM0 entry or part of it): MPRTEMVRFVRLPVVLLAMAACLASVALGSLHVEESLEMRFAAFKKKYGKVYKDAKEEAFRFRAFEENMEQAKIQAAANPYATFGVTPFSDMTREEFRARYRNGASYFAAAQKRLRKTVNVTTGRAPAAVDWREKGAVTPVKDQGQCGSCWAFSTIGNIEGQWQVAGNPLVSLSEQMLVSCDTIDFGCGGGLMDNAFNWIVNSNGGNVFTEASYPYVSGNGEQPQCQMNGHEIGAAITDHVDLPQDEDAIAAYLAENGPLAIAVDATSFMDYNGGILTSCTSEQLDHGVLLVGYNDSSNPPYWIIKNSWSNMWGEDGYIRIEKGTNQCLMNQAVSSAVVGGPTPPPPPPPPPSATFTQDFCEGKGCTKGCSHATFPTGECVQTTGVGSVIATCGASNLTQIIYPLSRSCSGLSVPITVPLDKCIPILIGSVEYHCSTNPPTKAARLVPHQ
In turn, `CC(C)C[C@@H](NC(=O)c1cc2cc(F)ccc2o1)C(=O)N[C@@H]1CCCN(S(=O)(=O)c2ccccn2)CC1=O` (single isomer, unassigned) [Example 168] displayed an inhibitory constant (Ki) of 2.7 nM.

Take `CC(C)C[C@@H](NC(=O)c1ccc2ccccc2c1)C(=O)N[C@@H]1CCCN(S(=O)(=O)c2ccccn2)CC1=O` (stereo in doubt) [Example 17, Naphthalene-2-carboxylic acid {(S)-3-methyl-1-[3-oxo-1-(pyridine-2-sulfonyl)-azepan-4-ylcarbamoyl]butyl}-amide]: the Ki was 8.3 nM.

Molecule `CC(C)C[C@@H](NC(=O)c1ccc(-c2ccc([N+](=O)[O-])cc2)o1)C(=O)N[C@@H]1CCCN(S(=O)(=O)c2ccccn2)CC1=O` (stereo in doubt) [Example 36, 5-(4-Nitro-phenyl)-furan-2-carboxylic acid {(S)-3-methyl-1-[3-oxo-1-(pyridine-2-sulfonyl)-azepan-4-ylcarbamoyl]-butyl}amide] came in with an inhibition constant Ki of 9.1 nM.

On to `O=C(N[C@H](CC1CCCCC1)C(=O)N[C@@H]1CCCN(S(=O)(=O)c2ccccn2)CC1=O)c1cc2ccccc2o1` (stereo in doubt) [Example 102, Benzofuran-2-carboxylic acid {(S)-2-cyclohexyl-1-[3-oxo-1-(pyridine-2-sulfonyl)-azepan-4-ylcarbamoyl]-ethyl}-amide], for which the inhibitory constant (Ki) is 3.7 nM.

Consider `CC(C)C[C@@H](NC(=O)c1cc2cc(F)ccc2o1)C(=O)N[C@H]1CCCN(S(=O)(=O)c2ccccn2)CC1=O` (stereo in doubt) [Example 166, 5-Fluoro-benzofuran-2-carboxylic acid {(S)-3-methyl-1-[3-oxo-1-(pyridine-2-sulfonyl)-azepan-4-ylcarbamoyl]-butyl}-amide], for which the Ki came out at 6 nM.
